In patent publication US9440982B2 (Eolas Therapeutics, Inc., priority 2012, dated 2016):

molecular target: T1, OX1 (Homo sapiens, UniProt O43613); assay: Orexin receptor cell-based functional assay, [Ca2+]i by FLIPR, CHO-OX1 cells; details: Table 2; CHO-OX1 cells, EC90 of OXA; read-out: IC50 Bioactivity OX1
T1 construct: expressed in transfected cells; host or cells: CHO (CHO-OX1, kept under selection antibiotic)
T1 sequence (O43613 1-425): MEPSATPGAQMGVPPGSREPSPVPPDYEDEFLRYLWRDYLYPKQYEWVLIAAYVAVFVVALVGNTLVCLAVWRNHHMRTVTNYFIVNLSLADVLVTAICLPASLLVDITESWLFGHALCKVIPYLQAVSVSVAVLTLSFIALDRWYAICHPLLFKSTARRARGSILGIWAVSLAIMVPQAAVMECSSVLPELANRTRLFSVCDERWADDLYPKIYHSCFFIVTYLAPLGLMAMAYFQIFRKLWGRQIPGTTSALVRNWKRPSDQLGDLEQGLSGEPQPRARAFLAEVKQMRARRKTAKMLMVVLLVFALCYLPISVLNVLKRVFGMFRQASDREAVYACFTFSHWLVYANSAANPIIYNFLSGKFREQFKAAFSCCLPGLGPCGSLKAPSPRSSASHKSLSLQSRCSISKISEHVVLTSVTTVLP
Experimental: Measurement of [Ca^2+]i using a FLIPR: CHO—OX1 or CHO—OX2 cells are seeded into black-walled clear-base 384-well plates (Costar) at a density of 20,000 cells per well in F12-K medium supplemented with 10% FBS and selection antibiotic (500 ug/ml G418 or 15 ug/ml Blasticidin) and cultured overnight. The cells are incubated with equal volume of calcium4 loading buffer (Molecular Devices, Inc.) containing 2.5 mM probenecid at 37° C. for 30 min, followed by putative OX1 or OX2 receptor antagonists (dose-range 0.1 nM-10 μM) for another 30 min.
The cells are incubated with equal volume of calcium6 loading buffer (Molecular Devices, Inc.) containing 2.5 mM probenecid at 37° C. for 2 h, followed by test compounds (dose-range 0.1 nM-10 μM) for another 30 min.

Structure (SMILES) | IC50 [nM]
CCc1cnc(NC[C@@H]2[C@H](C)CCCN2C(=O)c2nc(C)sc2-c2ccc(F)cc2)nc1 (racemic) [Example 16, rac-cis-(2-(((5-Ethylpyrimidin-2-yl)amino)methyl)-3-methylpiperidin-1-yl)(5-(4-fluorophenyl)-2-methylthiazol-4-yl)methanone] | 8
Cc1nc(C(=O)N2CCC[C@@H](C)[C@H]2CNc2ccnc(Cl)n2)c(-c2ccc(F)cc2)s1 (racemic) [Example 19, rac-cis-(2-(((2-Chloropyrimidin-4-yl)amino)methyl)-3-methylpiperidin-1-yl)(5-(4-fluorophenyl)-2-methylthiazol-4-yl)methanone] | 270
Cc1nc(C(=O)N2CCC[C@@H](C)[C@H]2CNc2cc(C(F)(F)F)ccn2)c(-c2ccc(F)cc2)s1 (racemic) [Example 21, rac-cis-(5-(4-Fluorophenyl)-2-methylthiazol-4-yl)(3-methyl-2-(((4-(trifluoromethyl)pyridin-2-yl)amino)methyl)piperidin-1-yl)methanone] | 24
Cc1nc(-c2ccccc2)c(C(=O)N2C(C)CCCC2CCOc2ccccc2)s1 (racemic) [Example 30, rac-(2-Methyl-4-phenylthiazol-5-yl)(2-methyl-6-(2-phenoxyethyl)piperidin-1-yl)methanone] | 220
CC1CCCC(CCOc2ccccc2)N1C(=O)c1ccccc1-c1ccccc1 (racemic) [Example 31, rac-Biphenyl-2-yl(2-methyl-6-(2-phenoxyethyl)piperidin-1-yl)methanone] | 10
Cc1nc(-c2ccccc2)c(C(=O)N2CC(O)CCC2CNC(=O)c2cccc3cccnc23)s1 (racemic) [Example 33, N-((5-Hydroxy-1-(2-methyl-4-phenylthiazole-5-carbonyl)piperidin-2-yl)methyl)quinoline-8-carboxamide] | 20
NC1CCC(CNC(=O)c2cccc3cccnc23)N(C(=O)c2ccccc2-c2ccccc2)C1 (racemic) [Example 39, N-((5-Amino-1-(biphenylcarbonyl)piperidin-2-yl)methyl)quinoline-8-carboxamide] | 30
CNC1CCC(CNC(=O)c2cccc3cccnc23)N(C(=O)c2sc(C)nc2-c2ccccc2)C1 (racemic) [Example 45, N-((1-(2-Methyl-4-phenylthiazole-5-carbonyl)-5-(methylamino)piperidin-2-yl)methyl)quinoline-8-carboxamide] | < 10000
CCNC1CCC(CNC(=O)c2cccc3cccnc23)N(C(=O)c2sc(C)nc2-c2ccccc2)C1 (racemic) [Example 46, N-((5-(Ethylamino)-1-(2-methyl-4-phenylthiazole-5-carbonyl)piperidin-2-yl)methyl)quinoline-8-carboxamide] | < 10000
Cc1nc(-c2ccccc2)c(C(=O)N2CC(NC(C)C)CCC2CNC(=O)c2cccc3cccnc23)s1 (racemic) [Example 48, N-((5-(Isopropylamino)-1-(2-methyl-4-phenylthiazole-5-carbonyl)piperidin-2-yl)methyl)quinoline-8-carboxamide] | < 10000

Results, then the compound that gave them:

IC50 [nM] | Structure (SMILES)
1 | Cc1nc(C(=O)N2CC(F)CCC2CNC(=O)c2cccc3cccnc23)c(-c2ccccc2)s1 (racemic) [Example 1, N-((5-Fluoro-1-(2-methyl-5-phenylthiazole-4-carbonyl)piperidin-2-yl)methyl)quinoline-8-carboxamide]
< 3000 | COc1c(F)cccc1C(=O)N1CCC[C@@H](C)[C@H]1CNC(=O)c1cccc2cccnc12 (racemic) [Example 10, rac-cis-N-((1-(3-Fluoro-2-methoxybenzoyl)-3-methylpiperidin-2-yl)methyl)quinoline-8-carboxamide]
9 | Cc1nc(C(=O)N2CCC[C@@H](C(F)(F)F)[C@H]2CNc2ccc(C(F)(F)F)cn2)c(-c2ccccc2)s1 (racemic) [Example 14, rac-cis-(2-Methyl-5-phenylthiazol-4-yl)(3-(trifluoromethyl)-2-(((5-(trifluoromethyl)pyridin-2-yl)amino)methyl)piperidin-1-yl)methanone]
52 | COc1ccnc(NC[C@@H]2[C@H](C)CCCN2C(=O)c2nc(C)sc2-c2ccc(F)cc2)n1 (racemic) [Example 17, rac-cis-(5-(4-Fluorophenyl)-2-methylthiazol-4-yl)(2-(((4-methoxypyrimidin-2-yl)amino)methyl)-3-methylpiperidin-1-yl)methanone]
16 | Cc1nc(C(=O)N2CCC[C@@H](C)[C@H]2CNc2ccc(Cl)cn2)c(-c2ccc(F)cc2)s1 (racemic) [Example 18, rac-cis-(2-(((5-Chloropyridin-2-yl)amino)methyl)-3-methylpiperidin-1-yl)(5-(4-fluorophenyl)-2-methylthiazol-4-yl)methanone]
82 | Cc1nc(C(=O)N2CCC[C@@H](C)[C@H]2CNc2ncccc2C(F)(F)F)c(-c2ccc(F)cc2)s1 (racemic) [Example 22, rac-cis-(5-(4-Fluorophenyl)-2-methylthiazol-4-yl)(3-methyl-2-(((3-(trifluoromethyl)pyridin-2-yl)amino)methyl)piperidin-1-yl)methanone]
200 | Cc1nc(-c2ccccc2)c(C(=O)N2C(C)CCCC2CNC(=O)c2cccc3cccnc23)s1 (racemic) [Example 29, rac-N-((6-Methyl-1-(2-methyl-4-phenylthiazole-5-carbonyl)piperidin-2-yl)methyl)quinoline-8-carboxamide]
2 | Cc1nc(-c2ccccc2)c(C(=O)N2CC(F)CCC2CNC(=O)c2cccc3cccnc23)s1 (racemic) [Example 35, N-((5-Fluoro-1-(2-methyl-4-phenylthiazole-5-carbonyl)piperidin-2-yl)methyl)quinoline-8-carboxamide]
600 | O=C(NCC1CCC(NCc2ccccc2)CN1C(=O)c1ccccc1-c1ccccc1)c1cccc2cccnc12 (racemic) [Example 40, N-((5-(Benzylamino)-1-(biphenylcarbonyl)piperidin-2-yl)methyl)quinoline-8-carboxamide]
1500 | CN(C)C1CCC(CNC(=O)c2cccc3cccnc23)N(C(=O)c2ccccc2-c2ccccc2)C1 (racemic) [Example 41, N-((1-(Biphenylcarbonyl)-5-(dimethylamino)piperidin-2-yl)methyl)quinoline-8-carboxamide]
< 10000 | Cc1nc(-c2ccccc2)c(C(=O)N2CC(NCCO)CCC2CNC(=O)c2cccc3cccnc23)s1 (racemic) [Example 47, N-((5-(2-Hydroxyethylamino)-1-(2-methyl-4-phenylthiazole-5-carbonyl)piperidin-2-yl)methyl)quinoline-8-carboxamide]
25 | CNC1CCC(CNC(=O)c2cccc3cccnc23)N(C(=O)c2ccccc2-c2ccccc2)C1 (racemic) [Example 49, N-((1-(Biphenylcarbonyl)-5-(methylamino)piperidin-2-yl)methyl)quinoline-8-carboxamide]
7 | COC1CCC(CNC(=O)c2cccc3cccnc23)N(C(=O)c2nc(C)sc2-c2cccc(F)c2)C1 (racemic) [Example 50, N-((1-(5-(3-Fluorophenyl)-2-methylthiazole-4-carbonyl)-5-methoxypiperidin-2-yl)methyl)quinoline-8-carboxamide]
